{
  "source": "patent US4379155A",
  "about": "“3,5-Disubstituted-1H-1,2,4-triazole derivatives” (priority 1981, dated 1983)",
  "data": [
    {"system": "rats", "experiment": "Anti-reproductive activity in pregnant rats, subcutaneous (5 days from day 6, autopsy day 16)", "assay_type": "in vivo, Sprague-Dawley rats", "details": "Rattus norvegicus, sc, 384 h, 20 mg/kg s.c., five consecutive days from day 6 of pregnancy, sesame oil, read-out: reduction of live fetuses, % of the treated rats", "description": "The same criteria and experimental conditions as above were also applied when the anti-reproductive activity of the compounds of the invention was investigated in other animal species such as, for instance, rats, dogs, monkeys and baboons. In representative experiments, female Sprague-Dawley rats weighing from 200 to 300 g. were treated subcutaneously with a dosage of 20 mg/kg of the compound to be tested, dissolved in sesame oil, for five consecutive days starting from day 6 of pregnancy.", "units": {"responders at 20 mg/kg": "%"}, "values": [
      {"smiles": "CCOc1cccc(-c2n[nH]c(-c3ccccc3C)n2)c1", "note": "[Example 9, 3-(m-Ethoxyphenyl)-5-(o-tolyl)-1H-1,2,4-triazole]", "responders at 20 mg/kg": "≥ 60"},
      {"smiles": "C=CCOc1cccc(-c2n[nH]c(-c3ccccc3C)n2)c1", "note": "[Example 10, 3-(m-Allyloxyphenyl)-5-(o-tolyl)-1H-1,2,4-triazole]", "responders at 20 mg/kg": "≥ 60"},
      {"smiles": "Cc1ccccc1-c1nc(-c2ccc(-c3ccccc3)cc2)n[nH]1", "note": "[Example 11, 3-(1,1'-Biphenyl-4-yl)-5-(o-tolyl)-1H-1,2,4-triazole]", "responders at 20 mg/kg": "≥ 60"},
      {"smiles": "C=CCOc1cccc(-c2n[nH]c(-c3ccccc3CC)n2)c1", "note": "[Example 13, 3-(m-Allyloxyphenyl)-5-(o-ethylphenyl)-1H-1,2,4-triazole]", "responders at 20 mg/kg": "≥ 60"},
      {"smiles": "CCc1ccccc1-c1nc(-c2ccc(Cl)cc2)n[nH]1", "note": "[Example 14, 3-(p-Chlorophenyl)-5-(o-ethylphenyl)-1H-1,2,4-triazole]", "responders at 20 mg/kg": "≥ 60"},
      {"smiles": "CC(C)c1ccccc1-c1nc(-c2ccccc2)n[nH]1", "note": "[Example 15, 5-(o-Isopropylphenyl)-3-phenyl-1H-1,2,4-triazole]", "responders at 20 mg/kg": "≥ 60"},
      {"smiles": "COc1cccc(-c2n[nH]c(-c3ccccc3C(C)C)n2)c1", "note": "[Example 16, 5-(o-Isopropylphenyl)-3-(m-methoxyphenyl)-1H-1,2,4-triazole]", "responders at 20 mg/kg": "≥ 60"}
    ]},
    {"system": "hamsters", "experiment": "Post-coital antifertility activity in pregnant hamsters, subcutaneous (days 4-8, autopsy day 14)", "assay_type": "in vivo, Syrian golden hamsters", "details": "10 mg/kg s.c. daily for 5 days, days 4-8 of pregnancy, sesame oil", "description": "Representative experiments for assessing antifertility activity were carried out with femal Syrian golden hamsters weighing 100 to 130 g. The animals were mated and the presence of sperm in the vagina was taken as evidence of mating. […] Pregnancy was later confirmed at the time of autopsy by presence of fetuses or implantation sites in the uterus. Even if an animal aborts the fetus, implantation scars still remain as evidence that the animal has been pregnant.\nThe animals were autopsied on day 14 of pregnancy and the uteri were examined for evidence of pregnancy (implantation sites, fetal resorptions or live fetuses), hemorrage, and evidence of abnormalities of the uterus, placenta or fetuses.", "values": [
      {"smiles": "c1ccc(-c2n[nH]c(-c3ccccc3)n2)cc1", "note": "[3,5-diphenyl-1H-1,2,4-triazole, reference compound]", "antifertility activity (active: reduction of live fetuses in at least 60% of the treated animals)": "much less active"},
      {"smiles": "COc1cccc(-c2n[nH]c(-c3ccccc3C)n2)c1", "note": "[Example 1, 3-(m-Methoxyphenyl)-5-(o-tolyl)-1H-1,2,4-triazole]", "antifertility activity (active: reduction of live fetuses in at least 60% of the treated animals)": "active"},
      {"smiles": "COc1ccccc1-c1n[nH]c(-c2ccccc2C)n1", "note": "[Example 4, 3-(o-Methoxyphenyl)-5-(o-tolyl)-1H-1,2,4-triazole]", "antifertility activity (active: reduction of live fetuses in at least 60% of the treated animals)": "active"},
      {"smiles": "CCc1ccccc1-c1nc(-c2cccc(F)c2)n[nH]1", "note": "[Example 18, 5-(o-Ethylphenyl)-3-(m-fluorophenyl)-1H-1,2,4-triazole]", "antifertility activity (active: reduction of live fetuses in at least 60% of the treated animals)": "active"},
      {"smiles": "CCc1ccccc1-c1nc(-c2ccc3c(c2)OCO3)n[nH]1", "note": "[Example 22, 5-(o-Ethylphenyl)-3-(3,4-methylenedioxyphenyl)-1H-1,2,4-triazole]", "antifertility activity (active: reduction of live fetuses in at least 60% of the treated animals)": "active"},
      {"smiles": "Cc1ccc(-c2nc(-c3ccccc3)n[nH]2)c(C)c1", "note": "[Example 25, 5-(2,4-Dimethylphenyl)-3-phenyl-1H-1,2,4-triazole]", "antifertility activity (active: reduction of live fetuses in at least 60% of the treated animals)": "active"},
      {"smiles": "COc1cccc(-c2n[nH]c(-c3ccc(C)cc3C)n2)c1", "note": "[Example 26, 5-(2,4-Dimethylphenyl)-3-(m-methoxyphenyl)-1H-1,2,4-triazole]", "antifertility activity (active: reduction of live fetuses in at least 60% of the treated animals)": "active"},
      {"smiles": "Cc1cc(Cl)ccc1-c1nc(-c2ccccc2)n[nH]1", "note": "[Example 29, 5-(4-Chloro-2-methylphenyl)-3-phenyl-1H-1,2,4-triazole]", "antifertility activity (active: reduction of live fetuses in at least 60% of the treated animals)": "active"},
      {"smiles": "COc1cccc(-c2n[nH]c(-c3ccc(Cl)cc3C)n2)c1", "note": "[Example 30, 5-(4-Chloro-2-methylphenyl)-3-(m-methoxyphenyl)-1H-1,2,4-triazole]", "antifertility activity (active: reduction of live fetuses in at least 60% of the treated animals)": "active"},
      {"smiles": "COc1cccc(-c2n[nH]c(-c3cc(Cl)ccc3C)n2)c1", "note": "[Example 32, 5-(5-Chloro-2-methylphenyl)-3-(m-methoxyphenyl)-1H-1,2,4-triazole]", "antifertility activity (active: reduction of live fetuses in at least 60% of the treated animals)": "active"}
    ]}
  ]
}
